Test results: ChEMBL document CHEMBL1777784, “New antiplasmodial indole alkaloids from Hunteria zeylanica” (Bioorg Med Chem Lett, 2011)

Legend:
HL-60 = test: Cytotoxicity against human HL60 cells; assay type: cell-based
Plasmodium falciparum = test: Antiplasmodial activity against Plasmodium falciparum 3D7 by Geimsa staining method; assay type: functional, organism-based
[1] = Selectivity index, ratio of IC50 for Plasmodium falciparum 3D7 to IC50 for human HL60 cells; set-up: species or system HL-60

SMILES | IC50 (HL-60) [µM] | IC50 (Plasmodium falciparum) [µM] | Ratio IC50 [1] | IC50 (Plasmodium falciparum; Plasmodium falciparum, 3D7) [µM]
C/C=C1/C[N@@+]2(C)CCc3c([nH]c4ccc(O)c([C@@H]5C[C@@]6(CC)CCCN7CCc8c(n5c5ccccc85)[C@H]76)c34)[C@H]2C[C@@H]1CCO (stereo in doubt; 4) [BISNICALATERINE B] | > 50 | 1.13 | >44 | –
C/C=C1/C[N@@+]2(C)CCc3c([nH]c4ccc(O)c([C@@H]5C[C@@]6(CC)CCCN7CCc8c(n5c5ccccc85)[C@H]76)c34)[C@H]2C[C@@H]1CCO (stereo in doubt; 5) [BISNICALATERINE B] | – | 0.05 | >1000 | –
C/C=C1/CN(C)[C@H]2Cc3c([nH]c4ccccc34)[C@H](n3c4c(c5ccccc53)C[C@H]3[C@@H](C(=O)OC)[C@H](C[C@H]4O)/C(=C\C)CN3C)C[C@H]1[C@@H]2C(=O)OC [BISNICALATERINE A] | 16.2 | – | 3.7 | 4.36
C/C=C1/C[N@@+]2(C)CCc3c([nH]c4ccc(O)c(C5=C[C@@]6(CC)CCCN7CCc8c(n5c5ccccc85)[C@H]76)c34)[C@H]2C[C@@H]1CCO [BISNICALATERINE D] | > 50 | – | – | > 50
CCc1c[n+]2ccc3c4ccccc4[nH]c3c2cc1CCO [NICALATERINE A] | > 50 | – | >450 | 0.11
